This is an account of results in patent US20230117324A1, “OXAZINE MONOACYLGLYCEROL LIPASE (MAGL) INHIBITORS” (Hoffmann-La Roche Inc., priority 2018, published 2023).

The assay has as its target T1, MAGL (recombinant wild-type) (Homo sapiens, UniProt Q99685).
T1 sequence (Q99685 1-303): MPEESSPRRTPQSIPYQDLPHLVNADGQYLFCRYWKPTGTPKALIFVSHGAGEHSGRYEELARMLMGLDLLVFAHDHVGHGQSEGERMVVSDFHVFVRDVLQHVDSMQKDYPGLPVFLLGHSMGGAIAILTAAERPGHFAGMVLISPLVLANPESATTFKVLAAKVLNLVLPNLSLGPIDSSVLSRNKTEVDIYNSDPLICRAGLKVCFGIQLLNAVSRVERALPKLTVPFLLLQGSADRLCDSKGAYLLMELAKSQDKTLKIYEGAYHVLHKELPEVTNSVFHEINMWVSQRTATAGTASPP
Kind of assay: MAGL inhibition, 4-NPA assay (hydrolysis of 4-nitrophenylacetate, absorbance at 405 nm). Type of assay: biochemical. Particulars: 4-NPA assay (footnote [a]: values not marked [b]). In outline: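 Final assay: 1 nM MAGL and 300 μM 4-nitrophenylacetate in 50 mM Tris, 1 mM EDTA, at RT. Compounds (25 μM–1.7 nM, 3-fold steps) were preincubated 15 min with enzyme. A405 was read 5 min after substrate addition and again after 80 min; activity was taken as the difference between reads.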

With `O=C1CO[C@H]2CCN(C(=O)N3CCC(C(F)(F)c4ccc(Cl)cc4)CC3)C[C@H]2N1` (single isomer, unassigned) [Example 37, (+) or (−)-cis-6-(4-((4-Chlorophenyl)difluoromethyl)piperidine-1-carbonyl)hexahydro-2H-pyrido[4,3-b][1,4]oxazin-3(4H)-one], the IC50 worked out at 0.034 µM.
Turning to `O=C1CO[C@H]2CCN(C(=O)N3CCC(c4ccc(OC(F)(F)F)cn4)CC3)C[C@H]2N1` (single isomer, unassigned) [Example 38, (+) or (−)-cis-6-(4-(5-(Trifluoromethoxy)pyridin-2-yl)piperidine-1-carbonyl)hexahydro-2H-pyrido[4,3-b][1,4]oxazin-3(4H)-one], the half-maximal inhibitory concentration (IC50) stood at 0.644 µM.
Take `O=C1CO[C@H]2CCN(C(=O)N3CCC(C(F)(F)c4ccc(F)cc4Cl)CC3)C[C@H]2N1` (single isomer, unassigned) [Example 39, (+) or (−)-cis-6-(4-((2-Chloro-4-fluorophenyl)difluoromethyl)piperidine-1-carbonyl)hexahydro-2H-pyrido[4,3-b][1,4]oxazin-3(4H)-one]: the half-inhibitory concentration (IC50) was found to be 0.021 µM.
Turning to `CCc1cncc(C2CCN(C(=O)N3CC[C@@H]4OCC(=O)N[C@@H]4C3)CC2)c1` (single isomer, unassigned) [Example 40, (+) or (−)-cis-6-(4-(5-Ethylpyridin-3-yl)piperidine-1-carbonyl)hexahydro-2H-pyrido[4,3-b][1,4]oxazin-3(4H)-one], the half-maximal inhibitory concentration (IC50) worked out at 0.683 µM.
For `CC(F)(F)c1ccc(C2CCN(C(=O)N3CC[C@@H]4OCC(=O)N[C@@H]4C3)CC2)nc1` (single isomer, unassigned) [Example 41, (+) or (−)-cis-6-(4-(5-(1,1-Difluoroethyl)pyridin-2-yl)piperidine-1-carbonyl)hexahydro-2H-pyrido[4,3-b][1,4]oxazin-3(4H)-one] the value was 0.485 µM.
`Cn1nc(C2CCN(C(=O)N3CC[C@@H]4OCC(=O)N[C@@H]4C3)CC2)c2ccc(Cl)cc21` (single isomer, unassigned) [Example 42, (+) or (−)-cis-6-(4-(6-Chloro-1-methyl-1H-indazol-3-yl)piperidine-1-carbonyl)hexahydro-2H-pyrido[4,3-b][1,4]oxazin-3(4H)-one]: the IC50 is 0.103 µM.
Take `Cc1cccc(C(c2ccccc2)C2CCN(C(=O)N3CC[C@@H]4OCC(=O)N[C@@H]4C3)CC2)c1` (single isomer, unassigned) [Example 80, (4aR,8aS)-6-[4-[(S or R)-m-Tolyl(phenyl)methyl]piperidine-1-carbonyl]-4,4a,5,7,8,8a-hexahydropyrido[4,3-b][1,4]oxazin-3-one]: the IC50 was 0.0004 µM.
Under `O=C1CO[C@H]2CCN(C(=O)N3CCC(C(CCO)c4ccc(F)cc4)CC3)C[C@H]2N1` (single isomer, unassigned; (+)) [Example 31, (+)-(4aR,8aS)-6-(4-((R or S)-1-(4-Fluorophenyl)-3-hydroxypropyl)piperidine-1-carbonyl)hexahydro-2H-pyrido[4,3-b][1,4]oxazin-3(4H)-one] stands 0.017 µM; under `O=C1CO[C@@H]2CCN(C(=O)N3CCN(C(c4ccc(F)cc4)c4ccc(F)cc4)CC3)C[C@@H]2N1` (stereo in doubt) [Example 13, (−)-(cis)-6-(4-(bis(4-Fluorophenyl)methyl)piperazine-1-carbonyl)hexahydro-2H-pyrido[4,3-b][1,4]oxazin-3(4H)-one], 0.088 µM.
With `O=C1CO[C@H]2CCN(C(=O)N3CCC(c4cncc(C(F)(F)F)c4)CC3)C[C@H]2N1` [Example 29, (4aR,8aS)-6-(4-(5-(Trifluoromethyl)pyridin-3-yl)piperidine-1-carbonyl)hexahydro-2H-pyrido[4,3-b][1,4]oxazin-3(4H)-one], the IC50 came to 0.703 µM.
For the molecule `O=C1CO[C@H]2CCN(C(=O)N3CCC(C(F)(F)c4ccc(C(F)(F)F)cc4)CC3)C[C@H]2N1` [Example 30, (4aR,8aS)-6-(4-(Difluoro(4-(trifluoromethyl)phenyl)methyl)piperidine-1-carbonyl)hexahydro-2H-pyrido[4,3-b][1,4]oxazin-3(4H)-one], the half-maximal inhibitory concentration (IC50) was found to be 0.025 µM.
Regarding `O=C1CO[C@H]2CCN(C(=O)N3CC(C(c4ccc(F)cc4)c4ccc(F)cc4)C3)C[C@H]2N1` [Example 82, (4aR,8aS)-6-(3-(bis(4-Fluorophenyl)methyl)azetidine-1-carbonyl)hexahydro-2H-pyrido[4,3-b][1,4]oxazin-3(4H)-one], the IC50 turned out to be 1.2 µM.
